In patent US20100029552A1, “Peptide inhibitors of c-jun dimerization and uses thereof” (Phylogica Limited, priority 2004, published 2010):
“Also recorded” adds a separate entry of the source. Where no end group is shown, it is not given here. [ ]: non-standard residue; d: D form.

Assays:
AP-I luciferase reporter = test: AP-1 luciferase reporter assay in K562-AP1 cells transfected with pcDNA3-peptide; assay type: cell-based; settings: 48 hours after transfection, compared to control cells, p<0.05, FIG. 15
Method: The K562 cell line was stably-transfected with the AP-I luciferase reporter of the Mercury Profiling kit (Clontech, U.S.A.), and clonal cell line 26 established. In 6-well tissue culture plate format, K562-AP1 cells were transfected with either pcDNA3 control, pcDNA3-Jun or pcDNA3-peptide using Lipofectamine-2000 (Life Technologies), according to manufacturer's instructions. Transfections were incubated for 48 hours, cells collected and protein lysates extracted for luciferase assay according to Mercury Profiling kit and associated protocols. Luciferase assays were performed in independent triplicates, and results for each peptide subjected to statistical analysis (SPSS software package) to determine if they were different to Jun (positive control for AP-1 activation) or pcDNA-3 (negative control for AP-I activation).

Primary rat neurons = test: Glutamate induced cell death of primary neurons, in vitro ischemia model (MTS assay); assay type: cell-based; settings: for rescue of primary neurons from glutamate induced cell death / number of cells surviving glutamate compared with TI-JIP: 250 μM glutamate; for rescue of primary neurons from glutamate induced cell death: live cells assayed 24 hours later, FIG. 19, 20; for number of cells surviving glutamate compared with TI-JIP: versus known c-Jun dimerization inhibitory peptide TI-JIP, FIG. 19
Method: Primary neuronal cells were isolated and cultured in the presence of glutamate (250 μM) for […] to induce cell death as a model of ischemia induced cell death.
Primary rat neurons were isolated from embryos (standard protocols), plated in cell culture dishes and maintained for 11 days in culture before experiment. Peptide was added 15 minutes to media before glutamate addition. Glutamate was added to final concentrations of 250 micromolar, for 5 mins at 37 degrees. Glutamate media removed, fresh media added. Assays for live cells done 24 hours later. Live cells were assayed using MTS assay.

SIRC cells = test: UV B induced cell death, FACS for propidium iodide and Annexin V; assay type: cell-based; settings: 10 minutes UV B, media containing 10 micromolar peptide, FIG. 18c
Method: Cells were exposed to UV B radiation and the level of cell death determined. Briefly, corneal keratinocytes in culture were exposed to IOmins UV irradiation. Post-exposure, media was replaced with either normal media or media containing 10 micromolar peptide. Subsequently, cells were prepared for FACS analysis. FACS analysis was used to detect propidium iodide and the level of Annexin V in a cell to determine the number of cells undergoing necrosis, early apoptosis or late apoptosis.

[1] = system: Primary rat neuronal cells; test: Glutamate induced cell death of primary neurons, D and L amino acid synthetic peptides; assay type: cell-based; settings: FIG. 21; for protection of neurons from glutamate induced cell death: 250 μM glutamate for 5 minutes; for protection offered by the D form relative to the L form of the peptide: same concentrations, glutamate induced cell death
Text: D amino acid forms of peptides SP35 (designated D35) (SEQ ID NO: 132) and SP36 (designated D36) (SEQ ID NO: 136) comprising D amino acids other than glycine were produced synthetically, as were peptides SP35, SP36 and TIJIP comprising L-amino acids. The retro-inverted peptides further comprised a TAT protein targeting domain fused to the C-terminus of the inverted peptide moiety and separated therefrom by a single L-glycine residue in each case. The amino acid sequences of the retro-inverted peptide analogues of SEQ ID NOs: 132 and 136 are set forth in SEQ ID NOs: 181 and 182, respectively.
Primary rat neuronal cells were isolated and cultured using methods known in the art. Cells were then incubated in the presence or absence of a test peptide, a positive control peptide (Ti JIP) or a combination of known small-molecule glutamate inhibitors (MK801 and CNQX). Cells were incubated in the presence of 250 μM glutamate for 5 minutes to induce cell death representative of ischemia induced cell death.

[2] = system: Primary rat neuronal cells; test: Acute ischemia: anaerobic incubation of primary neurons (MTS assay); assay type: cell-based; settings: anaerobic incubator for 35 minutes, peptide 15 mins pre-insult, MTS 24 hours later; FIG. 22
Method: Cells at the core of an ischemic event (e.g., a stroke) are subject to anaerobic conditions leading to severe energy depletion and glutamate release, which causes necrotic cell death. Such a condition is mimicked by incubating cell cultures in anaerobic conditions.
To determine the effect of peptides 35 (SEQ ID NO: 130) and 36 (SEQ ID NO: 134) comprising either D- or L-amino acids on an acute ischemic effect, primary rat neuronal cells were isolated and cultured. Synthetic peptides were added to cultures and the cells maintained in an anaerobic chamber for approximately 35 minutes. Cell survival was then measured.
Briefly, isolated rat neurons were treated with peptide for 15 mins pre-insult. After addition of peptide or control, Cells were washed in glucose free balanced salt solution containing deoxy glucose to prevent glycolysis. Cells were then incubated in anaerobic incubator for 35 minutes. Post insult, solution was removed, fresh media added to cells and MTS assayed for live cells 24 hours later.

c-Jun = target: T1, c-Jun (Homo sapiens, UniProt P05412); test: Co-immunoprecipitation of c-Jun with FLAG-tagged peptides from HEK293 cells; assay type: binding; settings: anti-FLAG capture, anti-c-Jun detection, FIG. 16
T1 construct: expressed in transfected cells; host or cells: HEK293
Method: HEK293 cells were cultured in DMEM+10% FCS, 2 mM L-glutamine. On the day prior to transfection, cells were trypsinised and split into 6-well tissue culture plates so that they reached 80-90% confluency for transfection. Cells were co-transfected with pcDNA3-Jun (1.3 μg) and pcDNA3-peptide (2.6 μg) using Lipofectamine-2000 reagent (Life Technologies, U.S.A.) as per manufacturer's instructions. Forty-eight hours post-transfection, transfected cells were scraped from the plates, collected by centrifugation and proteins extracted in hypotonic lysis buffer (1OmM Tris, 1OmM NaCl, 2 mM EDTA, pH 7.5+protease inhibitors (Roche, U.S.A.)). Salt concentration was adjusted to 15OmM by addition of NaCl, debris pelleted and proteins in supernatant collected in fresh tubes.
A small aliquot (40 μl) of protein was set aside for western analysis. The remainder was incubated by rotation at 4° C. for two hours, with either anti-Flag conjugated agarose beads (Sigma-Aldrich, U.S.A.) anti-Flag antibody (Sigma-Aldrich), preconjugated to anti-mouse magnetic Dynabeads (Dynal Biotech, Norway) according to manufacturer's directions. Protein complexes bound to conjugated beads were collected by centrifugation or over a Dynal magnet, washed eight times for five minutes with NET-2 buffer (50 mM Tris-Cl pH7.5, 150 mM NaCl, 0.05% Nonidet P-40). […]

T1 sequence (P05412 whole entry): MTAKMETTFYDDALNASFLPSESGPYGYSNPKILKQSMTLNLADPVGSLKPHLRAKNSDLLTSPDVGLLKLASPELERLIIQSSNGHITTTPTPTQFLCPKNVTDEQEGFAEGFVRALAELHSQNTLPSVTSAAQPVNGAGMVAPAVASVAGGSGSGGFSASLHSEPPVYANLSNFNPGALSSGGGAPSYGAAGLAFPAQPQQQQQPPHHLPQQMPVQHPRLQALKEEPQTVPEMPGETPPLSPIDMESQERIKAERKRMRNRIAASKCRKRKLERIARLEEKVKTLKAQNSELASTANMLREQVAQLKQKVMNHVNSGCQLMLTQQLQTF

Substance	expression of a reporter gene under control of an AP-I regulatory region (AP-I luciferase reporter)	rescue of primary neurons from glutamate induced cell death (Primary rat neurons)	number of cells surviving glutamate compared with TI-JIP (Primary rat neurons)	protection of neurons from glutamate induced cell death [1]	protection offered by the D form relative to the L form of the peptide [1]	rescue of cells from cell death caused by acute ischemia [2]	further results
SP71: c-Jun dimerization inhibitory peptide; amino acid SEQ ID NO: 158 with flanking vector sequence, 160 without (PFFWRLNKIFYFIDSRVAAAILN)	significantly reducing expression of a reporter gene	capable of rescuing a significant proportion of cells from cell death	considerably greater	–	–	–	–
SP36: c-Jun dimerization inhibitory peptide; amino acid SEQ ID NO: 134 with flanking vector sequence, 136 without (GLQGRRRQGYQSIKP)	significantly reducing expression of a reporter gene	capable of rescuing a significant proportion of cells from cell death; also recorded: capable of rescuing almost all cells from cell death; also recorded: dose dependent manner	considerably greater	protects a considerable proportion of neurons from glutamate induced cell death	–	–	number of cells undergoing apoptosis after UV B exposure (SIRC cells): capable of reducing the number of cells undergoing apoptosis; cells rescued from glutamate induced cell death (Primary rat neurons; about 5 μM of peptide, FIG. 20): about 100%
SP34: c-Jun dimerization inhibitory peptide; amino acid SEQ ID NO: 126 with flanking vector sequence, 128 without (AYQSINSSPVLPENSQELSLHLKQHVTKS)	significantly reducing expression of a reporter gene	–	–	–	–	–	–
D35: retro-inverted analogue of SEQ ID NO: 132 with C-terminal TAT domain after a single L-glycine; SEQ ID NO: 181 ([dR][dE][dR][dR][dS][dS][dS][dQ][dI]GG[dS][dR][dI][dS][dQ][dY][dA]GRRRQRRKKRG; also: C-terminal TAT domain: chirality not given here) [Peptide D35]	–	–	–	protects a considerable proportion of neurons from glutamate induced cell death	superior	a considerable proportion of cells from cell death	–
D36: retro-inverted analogue of SEQ ID NO: 136 with C-terminal TAT domain after a single L-glycine; SEQ ID NO: 182 ([dP][dK][dI][dS][dQ][dY]G[dQ][dR][dR][dR]G[dQ][dL]GGRRRQRRKKRG; also: C-terminal TAT domain: chirality not given here) [Peptide D36]	–	–	–	protects a considerable proportion of neurons from glutamate induced cell death	equivalent	a considerable proportion of cells from cell death	–
SP20: c-Jun dimerization inhibitory peptide; amino acid SEQ ID NO: 94 with flanking vector sequence, 96 without (IYSSILWGTKWCVLLVITP)	–	–	–	–	–	–	binding of c-Jun in co-immunoprecipitation (c-Jun): capable of binding c-Jun to a level detectable in a co-immunoprecipitation
